The procedure of the series:
The substrate depletion method was used to determine half-life (t1/2) of compounds by measuring the disappearance of the parent compound over time. Incubations were performed on a Tecan EVO 200 robotic system (Morrisville, NC, USA), equipped with a 96-channel head, Inheco heating block, and controlled by EVOware software (Version 3.5). Mixed-gender human liver microsomes were purchased from Xenotech (Kansas City, KS, USA) (Catalog: H0610). Gentest NADPH Regenerating Solution A and B (Catalog: 451220/451200), Axygen reservoirs (Catalog: RES-SW384-LP/RES-SW384-HP) were purchased from Corning Inc. (Corning, NY, USA). Incubation plates (384-well, 250 µL; Catalog# 186002632) and LC/MS analysis plates (384-well, 100 µL; Catalog# 186002631) were purchased from Waters Inc. (Milford, MA, USA). […] An albendazole solution in acetonitrile (ACN/IS) was prepared for use as an internal standard. Each 110 μL reaction mixture included the test compound (1 μM), HLM (0.5 mg/mL), and NADPH regenerating system in phosphate buffer (pH 7.4). The samples were incubated in 384-well plates at 37 °C for 0, 5, 10, 15, 30, and 60 min. At each designated time point, 10 μL of the mixture was transferred to another 384-well plate containing cold ACN/IS. The plates were then centrifuged at 3000 rpm for 20 min at 4 °C, and supernatants were collected into a 384-well injection plate. Sample quantification was performed using Thermo UPLC/HRMS and data were analyzed using TraceFinder software (Version 4.1). The data were then extracted, and half-life analysis was performed using our in-house Validator software (Version 1.0) as described previously.

Setting [1] is: mixed-gender HLM 0.5 mg/mL, test compound 1 μM, NADPH regenerating system, pH 7.4, 37 °C, 0-60 min, mean ± S.D. over 6 years, > 40 plates, t1/2 capped at 120 min.

Like-named read-outs stand apart in the source and are kept apart here. Where only a bound is given, the exact number is not on record here.

The values that follow come from paper PMC11510424, “Developing Robust Human Liver Microsomal Stability Prediction Models: Leveraging Inter-Species Correlation with Rat Data” (Pharmaceutics, 2024).

For the compound `Cc1cc(=O)n(-c2ccccc2)n1C` [Antipyrine, antipyrine], the “Half-Life (t1/2)” value (pH 7.4) is greater than 120 min. Turning to `O=C1CC2(CCCC2)CC(=O)N1CCCCN1CCN(c2ncccn2)CC1` [Buspirone, buspirone], under setting [1], the “Half-Life (t1/2)” value came out at 14.4 ± 4.1 min. With `CC(C)NCC(O)COc1cccc2ccccc12` (stereo not drawn) [Propranolol, propranolol], the “Half-Life (t1/2)” value under setting [1] was determined as 55.2 ± 10.1 min.
